According to patent publication US10526352B2, “Tricyclic benzoxaborole compounds and uses thereof” (GlaxoSmithKline Intellectual Property (No.2) Limited, priority 2013, dated 2020):
Read-outs that look alike come from different tables or passages of the source.

How the values were obtained:
A. baumannii ATCC 17978 = assay: General antimicrobial activity assay (CLSI broth microdilution); type: cell-based, Acinetobacter baumannii
Experimental: (§1) Whole-cell antimicrobial activity was determined by broth microdilution using the Clinical and Laboratory Standards Institute (CLSI) recommended procedure, Document M7-A7, “Methods for Dilution Susceptibility Tests for Bacteria that Grow Aerobically”.

E. coli K12 = assay: as above; type: cell-based, Escherichia coli
Experimental: as §1

E. coli K12 tolC::Tn10 = assay: as above; type: cell-based, Escherichia coli
Experimental: as §1

[1] = system: M. tuberculosis clinical isolates; assay: MIC against clinical strains (BACTEC MGIT 960 System); type: cell-based; details: Mycobacterium tuberculosis
[2] = system: M. tuberculosis standard strain Mtb H37Rv; assay: MIC determination against mycobacteria (resazurin, Middlebrook 7H9); type: cell-based, Mycobacterium tuberculosis
P. aeruginosa PA01 = assay: General antimicrobial activity assay (CLSI broth microdilution); type: cell-based, Pseudomonas aeruginosa
Experimental: as §1

Mtb LeuRS = Mtb LeuRS (Mycobacterium tuberculosis, UniProt P9WFV1); assay: biochemical; design: species or system M. tuberculosis
Sequence of Mtb LeuRS (P9WFV1 whole entry): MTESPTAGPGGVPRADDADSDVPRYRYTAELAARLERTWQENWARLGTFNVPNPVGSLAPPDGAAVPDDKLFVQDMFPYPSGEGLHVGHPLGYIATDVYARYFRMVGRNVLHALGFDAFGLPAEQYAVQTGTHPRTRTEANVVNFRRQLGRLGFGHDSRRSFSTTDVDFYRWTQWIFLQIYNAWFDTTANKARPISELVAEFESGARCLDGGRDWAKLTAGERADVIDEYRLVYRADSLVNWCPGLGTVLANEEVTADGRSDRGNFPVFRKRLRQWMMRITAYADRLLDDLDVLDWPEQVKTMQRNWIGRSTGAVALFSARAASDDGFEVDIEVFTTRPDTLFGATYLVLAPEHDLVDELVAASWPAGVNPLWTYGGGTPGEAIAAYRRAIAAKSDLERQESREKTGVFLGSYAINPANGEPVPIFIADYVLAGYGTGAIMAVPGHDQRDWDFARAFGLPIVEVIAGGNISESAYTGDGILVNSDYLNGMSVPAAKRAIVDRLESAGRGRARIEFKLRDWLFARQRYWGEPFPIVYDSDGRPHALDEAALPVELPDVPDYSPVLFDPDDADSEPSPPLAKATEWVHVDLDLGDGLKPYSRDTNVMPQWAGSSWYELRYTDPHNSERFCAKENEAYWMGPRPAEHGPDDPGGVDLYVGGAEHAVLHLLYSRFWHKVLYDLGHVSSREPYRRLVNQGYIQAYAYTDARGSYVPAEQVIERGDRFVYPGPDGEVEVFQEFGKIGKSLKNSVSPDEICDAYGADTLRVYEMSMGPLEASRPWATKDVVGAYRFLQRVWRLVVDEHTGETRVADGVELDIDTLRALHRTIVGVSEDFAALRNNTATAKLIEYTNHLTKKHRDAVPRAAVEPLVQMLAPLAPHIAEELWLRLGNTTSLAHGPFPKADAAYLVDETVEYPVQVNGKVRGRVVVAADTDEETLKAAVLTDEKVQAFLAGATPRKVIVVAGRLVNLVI

Human cyto LeuRS = Human cyto LeuRS (Homo sapiens, UniProt Q9P2J5); assay: LeuRS aminoacylation assay, IC50 determination; type: biochemical
Sequence of Human cyto LeuRS (Q9P2J5 whole entry): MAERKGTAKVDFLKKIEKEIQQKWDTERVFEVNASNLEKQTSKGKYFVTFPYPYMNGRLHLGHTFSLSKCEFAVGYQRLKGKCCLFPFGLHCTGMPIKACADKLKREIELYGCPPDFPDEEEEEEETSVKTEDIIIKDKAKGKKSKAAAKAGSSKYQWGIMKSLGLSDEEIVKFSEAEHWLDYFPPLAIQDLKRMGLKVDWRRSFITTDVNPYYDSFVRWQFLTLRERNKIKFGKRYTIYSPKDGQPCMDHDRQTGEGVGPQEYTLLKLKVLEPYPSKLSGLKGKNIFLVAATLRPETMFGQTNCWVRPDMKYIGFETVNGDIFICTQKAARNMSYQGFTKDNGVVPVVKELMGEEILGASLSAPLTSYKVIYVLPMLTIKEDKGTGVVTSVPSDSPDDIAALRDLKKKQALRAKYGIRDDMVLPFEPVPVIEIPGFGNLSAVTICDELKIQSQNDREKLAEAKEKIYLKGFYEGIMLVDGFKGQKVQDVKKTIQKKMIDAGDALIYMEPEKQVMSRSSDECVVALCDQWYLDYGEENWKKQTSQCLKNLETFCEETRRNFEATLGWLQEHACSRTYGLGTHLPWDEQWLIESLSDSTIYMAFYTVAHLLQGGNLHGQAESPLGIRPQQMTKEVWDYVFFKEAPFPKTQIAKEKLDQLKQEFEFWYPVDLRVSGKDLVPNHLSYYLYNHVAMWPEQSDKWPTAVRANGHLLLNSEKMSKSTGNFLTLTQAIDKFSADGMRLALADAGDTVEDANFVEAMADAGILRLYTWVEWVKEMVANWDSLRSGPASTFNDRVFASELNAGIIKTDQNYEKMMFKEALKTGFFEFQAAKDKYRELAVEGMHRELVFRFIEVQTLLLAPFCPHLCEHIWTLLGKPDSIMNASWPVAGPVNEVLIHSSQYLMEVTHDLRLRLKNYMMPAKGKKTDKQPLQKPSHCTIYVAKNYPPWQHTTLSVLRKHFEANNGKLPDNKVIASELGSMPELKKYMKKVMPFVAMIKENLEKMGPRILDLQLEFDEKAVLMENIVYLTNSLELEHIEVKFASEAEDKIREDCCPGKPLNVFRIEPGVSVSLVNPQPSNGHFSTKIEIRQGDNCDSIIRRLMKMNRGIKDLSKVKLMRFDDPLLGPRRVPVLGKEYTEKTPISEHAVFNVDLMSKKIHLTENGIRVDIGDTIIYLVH

[3] = read-out: measured MIC (breakdown), for 1 strain (EXAMPLE 2 and EXAMPLE 4), highest MIC
[4] = read-out: measured MIC (breakdown), for 40 strains (EXAMPLE 2 and EXAMPLE 4)
[5] = strain 137, sensitive clinical isolate
[6] = strain 169, sensitive clinical isolate
[7] = strain 192, sensitive clinical isolate
[8] = strain 199, sensitive clinical isolate
[9] = strain 206, sensitive clinical isolate
[10] = strain 207, sensitive clinical isolate
[11] = strain 208, sensitive clinical isolate
[12] = strain 223, sensitive clinical isolate
[13] = strain 231, sensitive clinical isolate
[14] = strain 237, sensitive clinical isolate
[15] = strain 247, sensitive clinical isolate
[16] = strain 248, sensitive clinical isolate
[17] = strain 249, sensitive clinical isolate
[18] = strain 255, sensitive clinical isolate
[19] = strain 261, sensitive clinical isolate
[20] = strain 265, sensitive clinical isolate
[21] = strain 269, sensitive clinical isolate
[22] = strain 281, sensitive clinical isolate
[23] = strain 292, sensitive clinical isolate
[24] = strain 314, sensitive clinical isolate
[25] = strain 316, sensitive clinical isolate
[26] = strain 317, sensitive clinical isolate
[27] = strain 322, sensitive clinical isolate
[28] = strain 323, sensitive clinical isolate
[29] = strain 324, sensitive clinical isolate
[30] = strain 326, sensitive clinical isolate
[31] = strain 327, sensitive clinical isolate
[32] = strain 328, sensitive clinical isolate
[33] = strain 329, sensitive clinical isolate
[34] = strain 332, sensitive clinical isolate
[35] = strain 333, sensitive clinical isolate
[36] = strain 358, sensitive clinical isolate
[37] = Mycobacterium tuberculosis, H37RV, read-out: Mtb H37Rv MIC (B)
[38] = hydrochloride; read-out: Mtb H37Rv MIC (B)
[39] = HepG2 Tox50 (A) / Mtb H37Rv MIC (B)
[40] = Mycobacterium tuberculosis, H37RV; read-out: Mtb H37Rv MIC (B)

Cl.NC[C@H]1OB2OCCOc3ccc(Cl)c1c32 [Example 4, (S)-(3-chloro-7,8-dihydro-2H-1,6,9-trioxa-9a-borabenzo[cd]azulen-2-yl)methanamine hydrochloride]
0.31 µM: MIC ([1]; strain 161, sensitive clinical isolate)
≤ 0.2 µM: MIC ([1]; read-out: measured MIC (breakdown), for 1 strain of 40 clinical isolates (lowest MIC, EXAMPLE 4))
< 0.1 µM: MIC [2, 37]
0.04 µM: MIC ([1]; strain 3, sensitive clinical isolate) | MIC ([1]; strain 356, sensitive clinical isolate) | MIC ([1]; strain 357, sensitive clinical isolate) | MIC ([1]; strain 362, sensitive clinical isolate) | MIC ([1]; strain 370, sensitive clinical isolate) | MIC ([1]; strain 457, sensitive clinical isolate)
0.08 µM: MIC [1, 4] | MIC ([1]; strain 52, sensitive clinical isolate) | MIC [1, 5] | MIC [1, 6] | MIC [1, 7] | MIC [1, 8] | MIC [1, 9] | MIC [1, 10] | MIC [1, 11] | MIC [1, 12] | MIC [1, 13] | MIC [1, 14] | MIC [1, 15] | MIC [1, 16] | MIC [1, 17] | MIC ([1]; strain 250, sensitive clinical isolate) | MIC ([1]; strain 253, sensitive clinical isolate) | MIC [1, 18] | MIC ([1]; strain 256, sensitive clinical isolate) | MIC ([1]; strain 257, sensitive clinical isolate) | MIC [1, 19] | MIC [1, 20] | MIC ([1]; strain 267, sensitive clinical isolate) | MIC [1, 21] | MIC [1, 22] | MIC [1, 23] | MIC ([1]; strain 296, sensitive clinical isolate) | MIC ([1]; strain 311, sensitive clinical isolate) | MIC [1, 24] | MIC [1, 25] | MIC [1, 26] | MIC [1, 27] | MIC [1, 28] | MIC [1, 29] | MIC [1, 30] | MIC [1, 31] | MIC [1, 32] | MIC [1, 33] | MIC [1, 34] | MIC [1, 35] | MIC ([1]; strain 337, sensitive clinical isolate) | MIC [1, 36] | MIC ([1]; strain 361, sensitive clinical isolate) | MIC ([1]; strain 371, sensitive clinical isolate) | MIC ([1]; strain 374, sensitive clinical isolate) | MIC ([1]; strain 385, sensitive clinical isolate) | MIC ([1]; strain 391, sensitive clinical isolate) | MIC ([1]; strain 424, sensitive clinical isolate) | MIC ([1]; strain 440, sensitive clinical isolate) | MIC ([1]; strain 442, sensitive clinical isolate) | MIC ([1]; strain 460, sensitive clinical isolate) | MIC ([1]; strain 481, sensitive clinical isolate) | MIC ([1]; strain 716, sensitive clinical isolate) | MIC ([1]; strain 729, sensitive clinical isolate) | MIC ([1]; strain 730, sensitive clinical isolate) | MIC ([1]; strain 731, sensitive clinical isolate) | MIC ([1]; strain 733, sensitive clinical isolate) | MIC ([1]; strain 734, sensitive clinical isolate) | MIC ([1]; strain 736, sensitive clinical isolate) | MIC ([1]; strain 737, sensitive clinical isolate) | MIC [2, 38]
>1000 µM: HepG2 cell 48 h Tox50 (A) (HepG2 cells)
0.16 µM: MIC [1, 3] | MIC ([1]; strain 274, sensitive clinical isolate) | MIC ([1]; strain 325, sensitive clinical isolate) | MIC ([1]; strain 705, sensitive clinical isolate)
0.148 µM: IC50 (Mtb LeuRS)
64 µg/mL: MIC: A. baumannii ATCC 17978 (A. baumannii ATCC 17978) | MIC: E. coli K12 (E. coli K12) | MIC: E. coli K12 tolC::Tn10 (E. coli K12 tolC::Tn10) | MIC: P. aeruginosa PA01 (P. aeruginosa PA01)

CC1(C)COc2c(Cl)ccc3c2B(O[C@@H]3CN)O1 [Example C13-Cl, reference compound]
5 µM: MIC [2, 37]
>10: Selectivity Index (A/B) (HepG2 cells; [39])
>50 µM: HepG2 cell 48 h Tox50 (A) (HepG2 cells; human)
2.16 µM: IC50 (Mtb LeuRS)

CCOc1ccc(Br)c2c1B(O)O[C@@H]2CN [Example C4-Br, reference compound]
320: Selectivity Index (A/B) (HepG2 cells)
0.1 µM: MIC [2, 40]
32 µM: HepG2 cell 48 h Tox50 (A) (HepG2 cells)
64 µg/mL: MIC: A. baumannii ATCC 17978 (A. baumannii ATCC 17978) | MIC: E. coli K12 (E. coli K12) | MIC: E. coli K12 tolC::Tn10 (E. coli K12 tolC::Tn10) | MIC: P. aeruginosa PA01 (P. aeruginosa PA01)
67 µM: IC50 (Human cyto LeuRS)

CCOc1ccc(Cl)c2c1B(O)O[C@@H]2CN [Example C6-Cl, reference compound]
36.3 µM: HepG2 cell 48 h Tox50 (A) (HepG2 cells)
64 µg/mL: MIC: A. baumannii ATCC 17978 (A. baumannii ATCC 17978) | MIC: E. coli K12 (E. coli K12) | MIC: E. coli K12 tolC::Tn10 (E. coli K12 tolC::Tn10) | MIC: P. aeruginosa PA01 (P. aeruginosa PA01)
363: Selectivity Index (A/B) (HepG2 cells)
38.8 µM: IC50 (Human cyto LeuRS)
0.1 µM: MIC [2, 40]

Cl.NC[C@H]1OB2OCCOc3ccc(Br)c1c32 [Example 2, (S)-(3-bromo-7,8-dihydro-2H-1,6,9-trioxa-9a-borabenzo[cd]azulen-2-yl)methanamine hydrochloride]
0.08 µM: MIC [1, 4] | MIC [1, 5] | MIC [1, 6] | MIC [1, 7] | MIC [1, 8] | MIC [1, 9] | MIC [1, 10] | MIC [1, 11] | MIC [1, 12] | MIC [1, 13] | MIC [1, 14] | MIC [1, 15] | MIC [1, 16] | MIC [1, 17] | MIC [1, 18] | MIC [1, 19] | MIC [1, 20] | MIC [1, 21] | MIC [1, 22] | MIC [1, 23] | MIC [1, 24] | MIC [1, 25] | MIC [1, 26] | MIC [1, 27] | MIC [1, 28] | MIC [1, 29] | MIC [1, 30] | MIC [1, 31] | MIC [1, 32] | MIC [1, 33] | MIC [1, 34] | MIC [1, 35] | MIC [1, 36]
< 0.1 µM: MIC [2, 37]
0.07 µM: MIC [2, 38]
292.4 µM: HepG2 cell 48 h Tox50 (A) (HepG2 cells)
0.04 µM: MIC ([1]; read-out: measured MIC (breakdown), for 1 strain of 40 clinical isolates (EXAMPLE 2))
64 µg/mL: MIC: A. baumannii ATCC 17978 (A. baumannii ATCC 17978) | MIC: E. coli K12 (E. coli K12) | MIC: E. coli K12 tolC::Tn10 (E. coli K12 tolC::Tn10) | MIC: P. aeruginosa PA01 (P. aeruginosa PA01)
< 1 µM: MIC ([1]; for all of but 1 of the 40 clinical isolate strains tested)
0.16 µM: MIC [1, 3]
4177: Selectivity Index (A/B) (HepG2 cells; [39])

C[C@]1(CO)COc2ccc(Br)c3c2B(OC3CN)O1 (stereo partly drawn) [Example 17, ((2S, 8S, or 2R, 8R)-2-(aminomethyl)-3-bromo-8-methyl-7,8-dihydro-2H-1,6,9-trioxa-9a-borabenzo[cd]azulen-8-yl)methanol]
1.97 µM: IC50 (Mtb LeuRS)
>50: Selectivity Index (A/B) (HepG2 cells; [39])
0.925 µM: MIC [2, 37]
>50 µM: HepG2 cell 48 h Tox50 (A) (HepG2 cells; human)
